Test results reported in patent publication US12595230B2, “Substituted 6,7-dihydro-5H-benzo[7]annulene compounds and their derivatives, processes for their preparation and therapeutic uses thereof” (Sanofi, priority 2020, dated 2026).

Biological target: T1, ERα (Homo sapiens, UniProt P03372)
T1 construct: host or cells: MCF7
T1 sequence (P03372 1-595): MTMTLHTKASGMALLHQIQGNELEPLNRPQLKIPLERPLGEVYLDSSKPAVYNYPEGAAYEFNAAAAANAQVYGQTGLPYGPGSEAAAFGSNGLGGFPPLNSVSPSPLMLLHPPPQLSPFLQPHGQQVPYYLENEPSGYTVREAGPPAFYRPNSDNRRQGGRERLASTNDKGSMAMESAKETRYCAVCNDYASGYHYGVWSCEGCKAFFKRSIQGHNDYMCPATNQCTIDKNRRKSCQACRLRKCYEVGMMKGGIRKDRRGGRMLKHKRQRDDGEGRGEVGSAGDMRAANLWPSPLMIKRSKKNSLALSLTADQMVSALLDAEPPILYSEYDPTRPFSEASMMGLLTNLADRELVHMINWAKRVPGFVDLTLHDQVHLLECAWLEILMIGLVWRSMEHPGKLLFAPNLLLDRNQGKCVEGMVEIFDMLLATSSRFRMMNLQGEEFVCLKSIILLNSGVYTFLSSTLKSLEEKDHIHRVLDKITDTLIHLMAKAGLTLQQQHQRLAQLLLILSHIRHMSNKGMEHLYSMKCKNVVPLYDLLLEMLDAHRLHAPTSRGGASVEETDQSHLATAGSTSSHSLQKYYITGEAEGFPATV
Assay: Estrogen receptor degradation activity: breast cancer cell ERα in cell western assay (MCF7 cells)
Format: cell-based
Conditions: for % Degradation At 0.3 μM: 4 hours, relative to fulvestrant 0.1 μM positive control; for DC50: 4 hours post compound addition, concentration which degrades 50% of the estrogen receptor, read-out: Degradation IC50
Method in brief: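 Compounds were applied to MCF7 cells in stripped-serum, phenol red-free medium for 4 h at final 0.3–0.0000018 μM, with fulvestrant (0.1 μM) as control. Value: IC50 (nM) for 50% ERα degradation.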

Compound | % Degradation At 0.3 μM [%] | DC50 [nM]
CCC1CCc2cc(C(=O)O)ccc2C(c2ccc(CC3CN(CCCF)C3)cc2)=C1c1ccc(Cl)cc1 (racemic) [Example 315, 8-(4-chlorophenyl)-7-ethyl-9-(4-((1-(3-fluoropropyl)azetidin-3-yl)methyl)phenyl)-6,7-dihydro-5H-benzo[7]annulene-3-carboxylic acid] | 87 | 1
CCC1CCc2cc(C(=O)O)ccc2C(c2ccc(CC3CN(CCCF)C3)cc2)=C1c1ccc(Cl)cc1 (single isomer, unassigned) [Example 329, 8-(4-chlorophenyl)-7-ethyl-9-(4-((1-(3-fluoropropyl)azetidin-3-yl)methyl)phenyl)-6,7-dihydro-5H-benzo[7]annulene-3-carboxylic acid] | 89 | 1.3
O=C(O)c1ccc2c(c1)CCCC([C@@H]1C[C@H]1C1CCC(F)(F)CC1)=C2c1ccc(CC2CN(CCCF)C2)cc1 [Example 331, 8-((1R,2S)-2-(4,4-difluorocyclohexyl)cyclopropyl)-9-(4-((1-(3-fluoropropyl)azetidin-3-yl)methyl)phenyl)-6,7-dihydro-5H-benzo[7]annulene-3-carboxylic acid] | 77 | 10.7
O=C(O)c1ccc2c(c1)CCCC(C1CC3(C1)CC(F)(F)C3)=C2c1ccc(CC2CN(CCCF)C2)cc1 [Example 51, 8-(6,6-difluorospiro[3.3]heptan-2-yl)-9-(4-((1-(3-fluoropropyl)azetidin-3-yl)methyl)phenyl)-6,7-dihydro-5H-benzo[7]annulene-3-carboxylic acid] | 89 | 0.7
COc1cc(F)ccc1C1=C(c2ccc(CC3CN(CCCF)C3)cc2)c2ccc(C(=O)O)cc2CCC1 [Example 36, 8-(4-fluoro-2-methoxyphenyl)-9-(4-((1-(3-fluoropropyl)azetidin-3-yl)methyl)phenyl)-6,7-dihydro-5H-benzo[7]annulene-3-carboxylic acid] | 89 | 0.6
O=C(O)c1ccc2c(c1Cl)CCCC(c1ccc(Cl)cc1Cl)=C2c1ccc(CC2CN(CCCF)C2)cc1 [Example 247, 4-chloro-8-(2,4-dichlorophenyl)-9-(4-((1-(3-fluoropropyl)azetidin-3-yl)methyl)phenyl)-6,7-dihydro-5H-benzo[7]annulene-3-carboxylic acid] | 97 | 1.8
O=C(O)c1ccc2c(c1)SCC(c1ccc(F)cc1F)=C2c1ccc(CC2CN(CCCF)C2)cc1 [Example 314, 3-(2,4-difluorophenyl)-4-(4-((1-(3-fluoropropyl)azetidin-3-yl)methyl)phenyl)-2H-thiochromene-7-carboxylic acid] | 87 | 3
O=C(O)c1ccc2c(c1)CCCC(c1ncc(Cl)cc1F)=C2c1ccc(CC2CN(CCCF)C2)cc1 [Example 219, 8-(5-chloro-3-fluoropyridin-2-yl)-9-(4-((1-(3-fluoropropyl)azetidin-3-yl)methyl)phenyl)-6,7-dihydro-5H-benzo[7]annulene-3-carboxylic acid] | 92 | 6.5
COc1ncc(C2=C(c3ccc(CC4CN(CCCF)C4)cc3)c3ccc(C(=O)O)cc3CCC2)cc1C(F)(F)F [Example 306, 9-(4-((1-(3-fluoropropyl)azetidin-3-yl)methyl)phenyl)-8-(6-methoxy-5-(trifluoromethyl)pyridin-3-yl)-6,7-dihydro-5H-benzo[7]annulene-3-carboxylic acid] | 82 | 25.8
O=C(O)c1ccc2c(c1)CCCC(c1ccc(Cl)cc1Cl)=C2c1ccc(C(O)C2CN(CCCF)C2)cc1 (single isomer, unassigned) [Example 42, 8-(2,4-dichlorophenyl)-9-(4-((1-(3-fluoropropyl)azetidin-3-yl)(hydroxy)methyl)phenyl)-6,7-dihydro-5H-benzo[7]annulene-3-carboxylic acid] | 94 | 3.3
CCC1CCc2cc(C(=O)O)ccc2C(c2ccc(CC3CN(CCCF)C3)cc2)=C1c1ccc(Cl)cc1 (single isomer, unassigned) [Example 330, 8-(4-chlorophenyl)-7-ethyl-9-(4-((1-(3-fluoropropyl)azetidin-3-yl)methyl)phenyl)-6,7-dihydro-5H-benzo[7]annulene-3-carboxylic acid] | 91 | 7
O=C(O)c1ccc2c(c1)CCCC(c1ccccc1C(F)(F)F)=C2c1ccc(CC2(F)CN(CCCF)C2)cc1 [Example 238, 9-(4-((3-fluoro-1-(3-fluoropropyl)azetidin-3-yl)methyl)phenyl)-8-(2-(trifluoromethyl)phenyl)-6,7-dihydro-5H-benzo[7]annulene-3-carboxylic acid] | 81 | 1.2

These reach a lower DC50. Values come first.

% Degradation At 0.3 μM [%] | DC50 [nM] | Compound
81 | 0.5 | O=C(O)c1ccc2c(c1)CCCC(c1cccc(C(F)(F)F)c1F)=C2c1ccc(CC2CN(CCC(F)F)C2)cc1 [Example 288, 9-(4-((1-(3,3-difluoropropyl)azetidin-3-yl)methyl)phenyl)-8-(2-fluoro-3-(trifluoromethyl)phenyl)-6,7-dihydro-5H-benzo[7]annulene-3-carboxylic acid]
94 | 0.4 | COc1ccc(C2=C(c3ccc(CC4CN(CCCF)C4)cc3)c3ccc(C(=O)O)cc3CCC2)c(F)c1 [Example 16, 8-(2-fluoro-4-methoxyphenyl)-9-(4-((1-(3-fluoropropyl)azetidin-3-yl)methyl)phenyl)-6,7-dihydro-5H-benzo[7]annulene-3-carboxylic acid]
89 | 0.4 | Cc1c(F)ccc(C2=C(c3ccc(CC4CN(CCC(F)F)C4)cc3)c3ccc(C(=O)O)cc3CCC2)c1C [Example 285, 9-(4-((1-(3,3-difluoropropyl)azetidin-3-yl)methyl)phenyl)-8-(4-fluoro-2,3-dimethylphenyl)-6,7-dihydro-5H-benzo[7]annulene-3-carboxylic acid]
85 | 0.4 | O=C(O)c1ccc2c(c1)CCCC(c1ccc(F)cc1C(F)(F)F)=C2c1ccc(CC2CN(CCC(F)F)C2)cc1 [Example 276, 9-(4-((1-(3,3-difluoropropyl)azetidin-3-yl)methyl)phenyl)-8-(4-fluoro-2-(trifluoromethyl)phenyl)-6,7-dihydro-5H-benzo[7]annulene-3-carboxylic acid]
91 | 0.4 | O=C(O)c1ccc2c(c1)CCCC(c1ccccc1F)=C2c1ccc(CC2CN(CCCF)C2)cc1 [Example 35, 8-(2-fluorophenyl)-9-(4-((1-(3-fluoropropyl)azetidin-3-yl)methyl)phenyl)-6,7-dihydro-5H-benzo[7]annulene-3-carboxylic acid]
93 | 0.4 | Cl.O=C(O)c1ccc2c(c1)CCCC(c1ccc(Cl)cc1F)=C2c1ccc(CC2CN(CCCF)C2)cc1 [Example 12, 8-(4-chloro-2-fluorophenyl)-9-(4-((1-(3-fluoropropyl)azetidin-3-yl)methyl)phenyl)-6,7-dihydro-5H-benzo[7]annulene-3-carboxylic acid]
67 | 0.3 | Cl.O=C(O)c1ccc2c(c1)CCCC(c1ccc(Cl)cc1Cl)=C2c1ccc(C2(C3CN(CCCF)C3)CC2)cc1 [Example 215, 8-(2,4-dichlorophenyl)-9-(4-(1-(1-(3-fluoropropyl)azetidin-3-yl)cyclopropyl)phenyl)-6,7-dihydro-5H-benzo[7]annulene-3-carboxylic acid hydrochloride]
86 | 0.3 | O=C(O)c1ccc2c(c1)CCCC(c1ccc(F)c(F)c1)=C2c1ccc(CC2CN(CCCF)C2)cc1 [Example 45, 8-(3,4-difluorophenyl)-9-(4-((1-(3-fluoropropyl)azetidin-3-yl)methyl)phenyl)-6,7-dihydro-5H-benzo[7]annulene-3-carboxylic acid]
91 | 0.3 | O=C(O)c1ccc2c(c1)CCCC(c1ccc(Cl)cc1Cl)=C2c1ccc(CC2CN(CCCF)C2)cc1 [Example 2, 8-(2,4-dichlorophenyl)-9-(4-((1-(3-fluoropropyl)azetidin-3-yl)methyl)phenyl)-6,7-dihydro-5H-benzo[7]annulene-3-carboxylic Acid]
89 | 0.2 | Cc1cc(F)ccc1C1=C(c2ccc(CC3CN(CCCF)C3)cc2)c2ccc(C(=O)O)cc2CCC1 [Example 33, 8-(4-fluoro-2-methylphenyl)-9-(4-((1-(3-fluoropropyl)azetidin-3-yl)methyl)phenyl)-6,7-dihydro-5H-benzo[7]annulene-3-carboxylic acid]
79 | 0.2 | O=C(O)c1ccc2c(c1)CCCC(c1c(Cl)cccc1C(F)(F)F)=C2c1ccc(CC2CN(CCCF)C2)cc1 [Example 34, 8-(2-chloro-6-(trifluoromethyl)phenyl)-9-(4-((1-(3-fluoropropyl)azetidin-3-yl)methyl)phenyl)-6,7-dihydro-5H-benzo[7]annulene-3-carboxylic acid]
